Results on eight compounds are retold here after publication PMC4780440 (Organic & biomolecular chemistry, 2015).

Entries after “also recorded” stand apart in the source; their conditions may differ. Square brackets hold non-standard residues; d marks the D form. Peptide text beside a SMILES is read from it. * marks the point of attachment. X1 = O=C(O)CN(CCN(CC(=O)O)CC(=O)O)CCN(CC(=O)O)CC(=O)NCCCOCCOCCOCCCNC(=O)COCC(=O)*; Nle = CCCC[C@H](N)C(=O)O

Test [1] deals with T1, hMC4R (Homo sapiens, UniProt P32245). Kind of test: Competitive binding assay against TRF probe 19, six-well plate protocol. The following applies: for Relative Potency: compared to the monovalent MSH(4) construct with the same scaffold core; for inhibition of the binding and uptake of probe 19: over the concentration range tested (10 μM–0.10 nM), probe 19 20 nM; for Ki lower than / inhibition higher than the corresponding monovalent molecule: divalent versus monovalent, against probe 19.
T1 sequence (P32245 whole entry): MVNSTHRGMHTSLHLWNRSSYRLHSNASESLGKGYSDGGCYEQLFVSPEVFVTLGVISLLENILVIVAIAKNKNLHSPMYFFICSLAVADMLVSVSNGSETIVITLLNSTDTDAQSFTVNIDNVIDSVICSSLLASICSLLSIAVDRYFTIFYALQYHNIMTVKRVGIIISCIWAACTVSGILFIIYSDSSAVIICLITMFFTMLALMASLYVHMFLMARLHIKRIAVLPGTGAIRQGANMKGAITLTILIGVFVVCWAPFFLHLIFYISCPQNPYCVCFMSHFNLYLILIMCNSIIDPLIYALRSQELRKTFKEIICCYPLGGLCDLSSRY

The target in test [2] is T1, hMC4R. The following applies: saturation binding assays using older protocol (96-well plates); ref [14]; cited from earlier work.

Turning to `N=C(N)NCCC[C@H](NC(=O)[C@@H](Cc1ccccc1)NC(=O)[C@H](Cc1c[nH]cn1)NC(=O)CCCCCn1cc(COc2cc(OCc3cn(CCCCCC(=O)N[C@@H](CO)C(N)=O)nn3)cc(OCc3cn(CCCCCC(=O)N[C@@H](CO)C(N)=O)nn3)c2)nn1)C(=O)N[C@@H](Cc1c[nH]c2ccccc12)C(N)=O` [Compound 14a, 6,6′-(4,4′-(((5-((1-((6S,9R,12S)-12-((1H-Imidazol-4-yl)methyl)-1-amino-6-(((S)-1-amino-3-(1H-indol-3-yl)-1-oxopropan-2-yl)carbamoyl)-9-benzyl-1-imino-8,11,14-trioxo-2,7,10,13-tetraazanonadecan-19-yl)-1H-1,2,3-triazol-4-yl)methoxy)-1,3-phenylene)bis(oxy))bis(methylene))bis(1H-1,2,3-triazole-4,1-diyl))bis(N-(1-amino-3-hydroxy-1-oxopropan-2-yl)hexanamide)], in test [1], the inhibitory constant (Ki) – broadly, the equilibrium dissociation constant of an inhibitor or competing ligand from its target – is 990 ± 140 nM and the “Relative Potency” value came to 1.

The compound `N=C(N)NCCC[C@H](NC(=O)[C@@H](Cc1ccccc1)NC(=O)[C@H](Cc1c[nH]cn1)NC(=O)CCCCCn1cc(CN2CCN(Cc3cn(CCCCCC(=O)N[C@@H](Cc4c[nH]cn4)C(=O)N[C@H](Cc4ccccc4)C(=O)N[C@@H](CCCNC(=N)N)C(=O)N[C@@H](Cc4c[nH]c5ccccc45)C(N)=O)nn3)CCN(Cc3cn(CCCCCC(=O)N[C@@H](Cc4c[nH]cn4)C(=O)N[C@H](Cc4ccccc4)C(=O)N[C@@H](CCCNC(=N)N)C(=O)N[C@@H](Cc4c[nH]c5ccccc45)C(N)=O)nn3)CC2)nn1)C(=O)N[C@@H](Cc1c[nH]c2ccccc12)C(N)=O` [Compound 18, 6,6′,6″-(4,4′,4″-((1,4,7-Triazonane-1,4,7-triyl)tris(methylene))tris(1H-1,2,3-triazole-4,1-diyl))tris(N-((S)-1-(((R)-1-(((S)-1-(((S)-1-amino-3-(1H-indol-3-yl)-1-oxopropan-2-yl)amino)-5-guanidino-1-oxopentan-2-yl)amino)-1-oxo-3-phenylpropan-2-yl)amino)-3-(1H-imidazol-4-yl)-1-oxopropan-2-yl)hexanamide)] gave a Ki in test [1] of 25 ± 4 nM.

On to `NC(=O)[C@H](CO)NC(=O)CCCCCn1cc(COc2cc(OCc3cn(CCCCCC(=O)N[C@@H](CO)C(N)=O)nn3)cc(OCc3cn(CCCCCC(=O)N[C@@H](CO)C(N)=O)nn3)c2)nn1` [Compound 12a, 6,6′,6″-(4,4′,4″-((Benzene-1,3,5-triyltris(oxy))tris(methylene))tris(1H-1,2,3-triazole-4,1-diyl))tris(N-((S)-1-amino-3-hydroxy-1-oxopropan-2-yl)hexanamide)], for which the “inhibition of the binding and uptake of probe 19” value in test [1] is “did not inhibit; also recorded: not competitive inhibitors”.

As for `N=C(N)NCCC[C@H](NC(=O)[C@@H](Cc1ccccc1)NC(=O)[C@H](Cc1c[nH]cn1)NC(=O)CCCCCn1cc(CN(Cc2cn(CCCCCC(=O)N[C@@H](Cc3c[nH]cn3)C(=O)N[C@H](Cc3ccccc3)C(=O)N[C@@H](CCCNC(=N)N)C(=O)N[C@@H](Cc3c[nH]c4ccccc34)C(N)=O)nn2)Cc2cn(CCCCCC(=O)N[C@@H](Cc3c[nH]cn3)C(=O)N[C@H](Cc3ccccc3)C(=O)N[C@@H](CCCNC(=N)N)C(=O)N[C@@H](Cc3c[nH]c4ccccc34)C(N)=O)nn2)nn1)C(=O)N[C@@H](Cc1c[nH]c2ccccc12)C(N)=O` [Compound 16c, 6,6′,6″-(4,4′,4″-(Nitrilotris(methylene))tris(1H-1,2,3-triazole-4,1-diyl))tris(N-((S)-1-(((R)-1-(((S)-1-(((S)-1-amino-3-(1H-indol-3-yl)-1-oxopropan-2-yl)amino)-5-guanidino-1-oxopentan-2-yl)amino)-1-oxo-3-phenylpropan-2-yl)amino)-3-(1H-imidazol-4-yl)-1-oxopropan-2-yl)hexanamide)], in test [1], the affinity, expressed as Ki, was 36 ± 4 nM and the “Relative Potency” value was 61.

On to `N=C(N)NCCC[C@H](NC(=O)[C@@H](Cc1ccccc1)NC(=O)[C@H](Cc1c[nH]cn1)NC(=O)CCCCCn1cc(COc2cc(OCc3cn(CCCCCC(=O)N[C@@H](CO)C(N)=O)nn3)cc(OCc3cn(CCCCCC(=O)N[C@@H](Cc4c[nH]cn4)C(=O)N[C@H](Cc4ccccc4)C(=O)N[C@@H](CCCNC(=N)N)C(=O)N[C@@H](Cc4c[nH]c5ccccc45)C(N)=O)nn3)c2)nn1)C(=O)N[C@@H](Cc1c[nH]c2ccccc12)C(N)=O` [Compound 14b, 6,6′-(4,4′-(((5-((1-(6-((1-Amino-3-hydroxy-1-oxopropan-2-yl)amino)-6-oxohexyl)-1H-1,2,3-triazol-4-yl)methoxy)-1,3-phenylene)bis(oxy))bis(methylene))bis(1H-1,2,3-triazole-4,1-diyl))bis(N-((S)-1-(((R)-1-(((S)-1-(((S)-1-amino-3-(1H-indol-3-yl)-1-oxopropan-2-yl)amino)-5-guanidino-1-oxopentan-2-yl)amino)-1-oxo-3-phenylpropan-2-yl)amino)-3-(1H-imidazol-4-yl)-1-oxopropan-2-yl)hexanamide)], for which, in test [1], the Ki is 91 ± 13 nM, the “Relative Potency” value was 11 and the “Ki lower than / inhibition higher than the corresponding monovalent molecule” value was found to be 11 fold.

As to `N=C(N)NCCC[C@H](NC(=O)[C@@H](Cc1ccccc1)NC(=O)[C@H](Cc1c[nH]cn1)NC(=O)CCCCCn1cc(CN(Cc2cn(CCCCCC(=O)N[C@@H](CO)C(N)=O)nn2)Cc2cn(CCCCCC(=O)N[C@@H](Cc3c[nH]cn3)C(=O)N[C@H](Cc3ccccc3)C(=O)N[C@@H](CCCNC(=N)N)C(=O)N[C@@H](Cc3c[nH]c4ccccc34)C(N)=O)nn2)nn1)C(=O)N[C@@H](Cc1c[nH]c2ccccc12)C(N)=O` [Compound 16b, 6,6′-(4,4′-((((1-(6-(((S)-1-Amino-3-hydroxy-1-oxopropan-2-yl)amino)-6-oxohexyl)-1H-1,2,3-triazol-4-yl)methyl)azanediyl)bis(methylene))bis(1H-1,2,3-triazole-4,1-diyl))bis(N-((S)-1-(((R)-1-(((S)-1-(((S)-1-amino-3-(1H-indol-3-yl)-1-oxopropan-2-yl)amino)-5-guanidino-1-oxopentan-2-yl)amino)-1-oxo-3-phenylpropan-2-yl)amino)-3-(1H-imidazol-4-yl)-1-oxopropan-2-yl)hexanamide)], in test [1], the Ki is 69 ± 12 nM, the “Relative Potency” value amounted to 32 and the “Ki lower than / inhibition higher than the corresponding monovalent molecule” value was determined as 32 fold.

Consider `CCCC[C@H](NC(=O)[C@H](CO)NC(=O)COCC(=O)NCCCOCCOCCOCCCNC(=O)CN(CCN(CCN(CC(=O)O)CC(=O)O)CC(=O)O)CC(=O)O)C(=O)N[C@@H](CCC(=O)O)C(=O)N[C@@H](Cc1c[nH]cn1)C(=O)N[C@H](Cc1ccccc1)C(=O)N[C@@H](CCCNC(=N)N)C(=O)N[C@@H](Cc1c[nH]c2ccccc12)C(N)=O` [Compound 19, Eu-DTPA-PEGO-MSH(7)-NH2] (X1-S[Nle]EH[dF]RW-NH2), for which the Kd (usually the constant that tells how readily two partners part at equilibrium) in test [2] was 27 ± 4 nM.

Consider `NC(=O)[C@H](CO)NC(=O)CCCCCn1cc(CN(Cc2cn(CCCCCC(=O)N[C@@H](CO)C(N)=O)nn2)Cc2cn(CCCCCC(=O)N[C@@H](CO)C(N)=O)nn2)nn1` [Compound 15a, 6,6′,6″-(4,4′,4″-(Nitrilotris(methylene))tris(1H-1,2,3-triazole-4,1-diyl))tris(N-((S)-1-amino-3-hydroxy-1-oxopropan-2-yl)hexanamide)], for which the “inhibition of the binding and uptake of probe 19” value in test [1] is recorded as “did not inhibit; also recorded: not competitive inhibitors”.
